Measurements reported in patent publication US9884821B2, “N1-cyclic amine-N5-substituted biguanide derivatives, methods of preparing the same and pharmaceutical composition comprising the same” (IMMUNOMET THERAPEUTICS INC., priority 2013, dated 2018).
“And” between values parts separate entries of the source, which are not always exact repeats. Identical values can stand only once. Counter-ions that a name gives are not always drawn.

Legend:
[1] = system: HCT116 cells; assay: Effect of inhibiting cancer cell proliferation (MTT) in HCT116 cells; type: cell-based, human; settings: for GI50 / inhibition at 100 µM / inhibition at 25 µM: Homo sapiens, HCT-116, 48 h; for inhibition at 100 µM: read-out: Cell growth inhibition (%) at 100 μM; for inhibition at 25 µM: read-out: Cell growth inhibition (%) at 25 μM
Source text: HCT116 cells derived from human colorectal cancer were used, and an effect of inhibiting cancer cell proliferation of the biguanide derivative was confirmed by measuring a concentration value (cell growth inhibition concentration, GIC50) at which cell growth was inhibited by 50% using a 3-(4,5-dimethylthiazol-2-yl)-2,5-diphenyltetrazolium bromide (MTT) reagent.
First, HCT116 cells (purchased from the KCLB) were put on a 96-well plate and cultured in a DMEM medium supplemented with 10% fatal bovine serum (commercially available from Gibco Life Technologies (US)) for 16 hours so that approximately 5,000 cells were counted in each well. Subsequently, to obtain the GIC50 value of each compound, the culture media were treated with 100 μM, 25 μM, 6.25 μM, 1.56 μM or 0.39 μM of the compound, and then cultured for 48 hours. In order to determine whether the cells survived after treatment with the compounds, MTT (commercially available from AMRESCO (US)) was added to the culture media which were then cultured for another 3 hours. Formed formazane crystals were dissolved using dimethyl sulfoxide (DMSO) and the absorbance of the resulting solution was measured at 560 nm. After the 48-hour culture, a ratio of a living cell count on a well plate treated with the compounds synthesized in the Examples to a cell count cultured on a well plate not treated with the compound was indicated as cell viability (%) according to the concentration of each treated compound. The cell viability (%) was used to plot a cell viability curve graph and calculate a concentration (GIC50) value of the compound at which the growth was inhibited by 50%, thereby confirming the inhibition effect of cancer cell proliferation.

[2] = system: AMPK; assay: AMPK activation effect (AMPK [pT172] ELISA) in MCF7 cells; type: cell-based, human; settings: 24 hours; for AMPK activation effect (%) 10 μM / AMPK activation effect (%) 50 μM / AMPK activation effect (%) 5 μM: AMPKα Thr172 phosphorylation relative to untreated cells; for AC150: concentration at which AMPK activation reached 150%
Method: ELISA kit (Invitrogen, Catalog No. KH00651).
MCF7 cells were cultured in a DMEM medium supplemented with 10% fatal bovine serum (commercially available from Gibco Life Technologies (US)). Thereafter, the cultured MCF7 cells were put into a 6-well plate with approximately 5×10^5 cells per well, and cultured in an incubator supplied with 5% CO2. Culture media were treated with the derivatives synthesized in the Examples at concentrations of 5, 10 and 50 uM, and then cultured for 24 hours. […] Subsequently, the cells were lysed according to a method presented in the operation manual of the AMPK [pT172] ELISA kit, and 20 μg of a cell lysate was then yielded through protein assay. Thereafter, the AMPK activation effect was obtained by determining a degree of phosphorylation of a 172nd threonine residue (Thr172) of the AMPKα from the cell lysate according to the method presented in the operation manual of the AMPK [pT172] ELISA kit.

SMILES | GI50 [1] [µM] | inhibition at 100 µM ([1]; 100 μM) [%] | AMPK activation effect (%) 10 μM [2] [%] | AC150 [2] [µM] | AMPK activation effect (%) 50 μM [2] | inhibition at 25 µM [1] [%] | AMPK activation effect (%) 5 μM [2] [%] | Cell growth inhibition (%) at 100 μM ([1]; 100 μM, 48 hours)
N=C(NC(=N)N1CC=CCC1)Nc1ccc(Br)cc1 [Example 36, N1-1,2,3,6-tetrahydropyridine-N5-(4-bromo)phenyl biguanide hydrochloride] | 11.2 | 99 | 568 | 0.87 |  |  |  | 
COc1ccc(NC(=N)NC(=N)N2CC=CC2)cc1.Cl [Example 42, N1-1,2-dihydropyrrole-N5-(4-methoxyl)phenyl biguanide hydrochloride] | > 100 | 14 | 157 | 14.7 | 210% |  |  | 
CC1CCCCN1C(=N)NC(=N)Nc1ccc(OC(F)(F)F)cc1.Cl (centres unmarked) [Example 72, N1-(2-methyl)piperidine-N5-(4-trifluoromethoxy)phenyl biguanide hydrochloride] | 8 |  | 386 | 2.0 |  | 100 | 210 | 
COc1cc(NC(=N)NC(=N)N2CC=CCC2)cc(OC)c1.Cl [Example 38, N1-1,2,3,6-tetrahydropyridine-N5-(3,5-dimethoxy)phenyl biguanide hydrochloride] | 108 | 47.8 | 97 | >50 | 117% |  |  | 
Cl.N=C(NC(=N)N1CC=CC1)Nc1ccc(Br)cc1 [Example 9, N1-1,2-dihydropyrrole-N5-(4-bromo)phenyl biguanide hydrochloride] | 28.8 | 99.5 | 169 | 9.0 | 371% |  |  | 
Cl.N=C(NCc1ccc(C(F)(F)F)cc1)NC(=N)N1CC=CCC1 [Example 56, N1-1,2,3,6-tetrahydropyridine-N5-(4-trifluoromethyl)benzyl biguanide hydrochloride] | 26.9 | 97.7 | 389 | 2.1 | 671% |  |  | 
CN(C)C(=N)N=C(N)N [Metformin, reference compound] | 2170 | 6.5 |  |  | 130% and 130 (at 50 μM) % |  |  | 6.5 (at 100 μM ) %
COc1cccc(NC(=N)NC(=N)N2CC=CCC2)c1.Cl [Example 41, N1-1,2,3,6-tetrahydropyridine-N5-(3-methoxyl)phenyl biguanide hydrochloride] | 88.2 | 55.9 | 125 | 22.4 | 201% |  |  | 
Cl.N=C(NCc1cccc(OC(F)(F)F)c1)NC(=N)N1CC=CCC1 [Example 55, N1-1,2,3,6-tetrahydropyridine-N5-(3-trifluoromethoxy)benzyl biguanide hydrochloride] | 22.8 | 97.9 | 389 | 2.1 | 608% |  |  | 
CC1CCCC(C)N1C(=N)NC(=N)Nc1ccc(F)cc1.Cl (centres unmarked) [Example 98, N1-(2,6-dimethyl)piperidine-N5-(4-fluoro)phenyl biguanide hydrochloride] | 45.4 |  | 244 | 2.8 |  | 28.2 | 239 | 
CC1CCCC(C)N1C(=N)NC(=N)Nc1ccc(Cl)cc1.Cl (centres unmarked) [Example 96, N1-(2,6-dimethyl)piperidine-N5-(4-chloro)phenyl biguanide hydrochloride] | 10.4 |  | 395 | 1.8 |  | 101 | 240 | 
Cl.N=C(NC(=N)N1CC=CCC1)Nc1ccc(F)cc1 [Example 37, N1-1,2,3,6-tetrahydropyridine-N5-(4-fluoro)phenyl biguanide hydrochloride] | 135 | 45.3 | 187 | 4.2 | 522% |  |  | 
CC1CCCN(C(=N)NC(=N)Nc2ccc(F)cc2)C1.Cl (centres unmarked) [Example 67, N1-(3-methyl)piperidine-N5-(4-fluoro)phenyl biguanide hydrochloride] | 9.2 |  | 427 | 1.6 |  | 100 | 258 | 

Continued, in another order:

GI50 [1] [µM] | SMILES | inhibition at 100 µM ([1]; 100 μM) [%] | AMPK activation effect (%) 10 μM [2] [%] | AC150 [2] [µM] | AMPK activation effect (%) 50 μM [2] | inhibition at 25 µM [1] [%] | AMPK activation effect (%) 5 μM [2] [%] | Cell growth inhibition (%) at 100 μM ([1]; 100 μM, 48 hours)
7.5 | CC1CCCC(C)N1C(=N)NC(=N)Nc1cccc(C(F)(F)F)c1.Cl (centres unmarked) [Example 92, N1-(2,6-dimethyl)piperidine-N5-(3-trifluoromethyl)phenyl biguanide hydrochloride] |  | 417 | 0.8 |  | 100 | 324 | 
89.9 | COc1ccc(NC(=N)NC(=N)N2CC=C(C)C2)cc1OC.Cl [Example 23, N1-(3-methyl)-1,2-dihydropyrrole-N5-(3,4-dimethoxy)phenyl biguanide hydrochloride] | 29.5 | 57 | 21.3 | 279% |  |  | 
8.4 | Cl.N=C(NC(=N)N1CC=CCC1)Nc1ccc(OC(F)(F)F)cc1 [Example 28, N1-1,2,3,6-tetrahydropyridine-N5-(4-trifluoromethoxy)phenyl biguanide hydrochloride] | 100 | 732 | 0.15 |  |  |  | 
19.1 | Cl.N=C(NC(=N)N1CC=CC1)Nc1ccc(OC(F)(F)F)cc1 [Example 4, N1-1,2-dihydropyrrole-N5-(4-trifluoromethoxy)phenyl biguanide hydrochloride] | 99.7 | 201 | 5.0 | 584% |  |  | 
10.4 | CC1=CCN(C(=N)NC(=N)Nc2ccc(Br)cc2)C1.Cl [Example 21, N1-(3-methyl)-1,2-dihydropyrrole-N5-(4-bromo)phenyl biguanide hydrochloride] | 99.4 | 156 | 11.9 |  |  |  | 
2.8 | CC1CCCC(C)N1C(=N)NC(=N)Nc1ccc(Cl)c(C(F)(F)F)c1.Cl (centres unmarked) [Example 94, N1-(2,6-dimethyl)piperidine-N5-(4-chloro, 3-trifluoromethyl)phenyl biguanide hydrochloride] |  | 643 | 1.1 |  | 100 | 328 | 
8.3 | Cl.N=C(NC(=N)N1CC=CC1)Nc1ccc(OC(F)(F)F)c(Cl)c1 [Example 10, N1-1,2-dihydropyrrole-N5-(3-chloro,4-trifluoromethoxy)phenyl biguanide hydrochloride] | 97.9 | 408 | 1.4 |  |  |  | 
15.4 | Cl.N=C(NC(=N)N1CC=CC1)Nc1cccc(OC(F)(F)F)c1 [Example 52, N1-1,2-dihydropyrrole-N5-(3-trifluoromethoxy)phenyl biguanide hydrochloride] | 100 | 352 | 2.7 |  |  |  | 
8.7 | CC1CCCCN1C(=N)NC(=N)Nc1ccc(C(F)(F)F)cc1.Cl (centres unmarked) [Example 74, N1-(2-methyl)piperidine-N5-(4-trifluoromethyl)phenyl biguanide hydrochloride] |  | 410 | 2.0 |  | 100 | 199 | 
2.6 | CC1=CCN(C(=N)NC(=N)Nc2ccc(Cl)c(C(F)(F)F)c2)C1.Cl [Example 18, N1-(3-methyl)-1,2-dihydropyrrole-N5-(4-chloro, 3-trifluoromethyl)phenyl biguanide hydrochloride] | 99.5 |  | 0.81 |  |  |  | 
